pIC50: −log10 of the molar value.
Experiments:
[1] = system: hepatocytes isolated and cultured from obese Zucker (fa/fa) rats; experiment: Inhibition of glucose output from hepatocytes isolated and cultured from obese Zucker (fa/fa) rats; assay type: cell-based, rat; settings: inhibition of glucose output compared to glucagon stimulated cells
Procedure: Inhibition of Glucose Output from Hepatocytes Isolated and Cultured from Obese Zucker (fa/fa) Rats and Their Lean Controls
Culturing of Hepatocytes: Isolated hepatocytes were plated on 12 well rat-tail collagen coated plates at a cell density of 5×10(5) cells/ml (approximately 1 ml of cell suspension per well). Following a one hour attachment period in which plates were incubated in a CO2 incubator at 37 deg C. (95% O2, 5% CO2), the supernatant containing unattached hepatocytes was removed and replaced with fresh media (1 ml/well) containing 1 μM dexamethasone and 100 pM insulin. Cells were maintained at 37 deg C. for 48 hours in a 95% O2, 5% CO2 environment. At the end of the first 24 hours, the media was aspirated off of the wells and replaced with fresh media containing the same concentrations of dexamethasone and insulin as described earlier. Treatment with Drugs and Assessment of Glucose Output: Drugs were routinely added with fresh media 24 hours after the initial attachment period. Eighteen hours later, media was aspirated and 500 μl of fresh Hank's buffer, Buffer D (glucose-free) supplemented with hormones, gluconeogenic substrates and drug(s) was added to each well and incubated for 4 hours. At the end of the 4 hour incubation, media from each well was removed and assayed for glucose content using the hexokinase/glucose-6-phosphate dehydrogenase coupled assay on the Boehringer Mannheim model 911 auto analyzer. Glucose concentration was expressed as μg/ml. Three of the plates from each treated group were frozen for subsequent determination of protein content. Two plates from each treatment group were used to assess the cytotoxicity of drug(s) and other agents as determined by the MTT (tetrazolium) dye reduction method (see below).
Protein test procedure: Three plates with no insulin treatment and three plates with 10^−8 M insulin treatment were used for protein determination. After supernatant has been removed for determination of glucose output the plates were frozen and stored at −20 deg C. until ready to assay for protein content. Prior to determination of protein the plates were defrosted at room temperature for 15 minutes. An aliquot of 1 ml 0.1 N NaOH was added to each well. Plates were incubated at 4 deg C. overnight. Solutions for measurement of protein content were mixed by pipetting the NaOH solution up and down several time with a 1 ml pipette and then transferring to a small polyethylene tube. Protein determination was based on that of the Pierce BCA protein assay protocol (Pierce cat. no. 23223). A set of protein standards (0.2, 0.4, 0.6, 0.8, and 1 mg/ml BSA) was prepared by serial dilution of 1 mg/ml bovine serum albumin with 0.1 N NaOH, and 40 μl of each standard, or control blank was pipetted into a 96-well plate in duplicate. Each unknown protein sample (40 μl) was tested in triplicate. An aliquot of 200 μl of BCA protein assay reagent (consisting of 50 parts Reagent A with 1 part Reagent B) was added to each well. Samples were mixed with a Titertek pipette. The microtiter plate was covered with sealing tape and incubated at room temperature for 1 hour. After incubation, the sealing tape was removed and absorbance measured on a plate reader (Uvmax kinetic microplate reader, Molecular Devices) at 570 nm. A standard curve was prepared by plotting the blank-corrected absorbance against known protein concentrations, and protein concentrations were then determined for each unknown.
Measurements and Calculations: Glucose output was calculated as μg glucose/mg protein/hour, and inhibition of glucose output was calculated as percent inhibition of glucose output when compared to glucagon stimulated cells. Cytotoxicity was determined using the MTT dye reduction assay and data were expressed as percent inhibition of MTT dye reduction compared to control cells. […]

diabetic ob/ob mice [2] = experiment: Hypoglycemic effect in diabetic ob/ob mice; assay type: in vivo, mouse
Procedure: Hypoglycemic Effect in Diabetic OB/OB Mice
Procedure: In each study, male or female ob/ob (C57 B1/6J) mice and their mean litermates (ob/+ or +/+, Jackson Laboratories) ages 2 to 5 months (10 to 65 g) were randomized according to plasma glucose into 4 groups of 10 mice. The mice were housed 5 per cage and were maintained on normal rodent chow with water ad libitum. Mice receive compound daily by gavage (suspended in 0.5 ml of 0.5% methyl cellulose); dissolved in the drinking water; or admixed in the diet. The dose of compounds given ranges from 2.5 to 200 mg/kg body weight/day. Body weight of fed animals was measured at the beginning of each week and doses for the entire week were calculated using this weight and were expressed in terms of the active moiety of the compound. Control mice receive vehicle only. […]
Measurements: The plasma was isolated by centrifugation and the concentration of glucose was measured enzymatically on an Abbott V. P. Analyzer and the plasma concentration of insulin was determined by radioimmunoassay (Heding, 1972)
Analysis of variance followed by Dunnett's Comparison Test (one-tailed) was used to estimate the significant difference between the plasma glucose values from the control group and the individual compound treated groups (CMS SAS Release 5.18). A compound will be considered active if the difference has a p<0.05.

diabetic ob/ob mice [3] = settings: reference compound, 20 mg/kg/day; cited from earlier work

melting point [°C]	Compound	pIC50 ([1]; Rattus norvegicus, Hepatocyte)	pIC50 [1]	also measured
98 to 100	O=S(=O)(Nc1ccc2c(OCc3ccc(-c4ccc(C(F)(F)F)cc4)cc3F)cccc2c1)C(F)(F)F [Example 5, C,C,C-Trifluoro-N-[5-(3-fluoro-4′-trifluoromethyl-biphenyl-4-ylmethoxy)-naphthalen-2-yl]-methanesulfonamide]	5.20	–	–
–	O=S(=O)(Nc1ccc2c(OCc3cccc(OCc4ccc(-c5ccc6ccccc6c5)cc4)c3)cccc2c1)C(F)(F)F [Example 14, N-[5-(4-naphthalen-2-yl-benzyloxy-3-ylmethoxy)-naphthalen-2-yl]-C,C,C-trifluoro-methanesulfonamide]	–	4.98	–
–	O=S(=O)(Nc1ccc2c(OCc3cccc(-c4ccccc4)c3)cccc2c1)C(F)(F)F [Example 27]	–	5.15	REDUCTION IN PLASMA GLUCOSE Day 3 (6 hr) p.o. (diabetic ob/ob mice [2]; 10 mg/kg): −31% (10 mg/kg)
169 to 170	O=S(=O)(Nc1ccc2c(OCc3ccc(-c4ccc(Cl)c(Cl)c4)cc3Cl)cccc2c1)C(F)(F)F [Example 30, C,C,C-Trifluoro-N-[5-(3,3′,4′-trichloro-biphenyl-4-ylmethoxy)-naphthalen-2-yl]-methanesulfonamide]	5.51	–	REDUCTION IN PLASMA GLUCOSE Day 1 (6 hr) p.o. (diabetic ob/ob mice [2]; 25 mg/kg): −6% (25 mg/kg); REDUCTION IN PLASMA GLUCOSE Day 3 (6 hr) p.o. (diabetic ob/ob mice [2]; 25 mg/kg): −11% (25 mg/kg)
176 to 178	O=S(=O)(Nc1ccc2c(OCc3ccc(-c4ccc(Cl)cc4)cc3Cl)cccc2c1)C(F)(F)F [Example 31, N-[5-(3,4′-Dichloro-biphenyl-4-ylmethoxy)-naphthalen-2-yl]-C,C,C-trifluoro-methanesulfonamide]	5.59	–	REDUCTION IN PLASMA GLUCOSE Day 1 (6 hr) p.o. (diabetic ob/ob mice [2]; 5 mg/kg): −23% (5 mg/kg); REDUCTION IN PLASMA GLUCOSE Day 3 (6 hr) p.o. (diabetic ob/ob mice [2]; 5 mg/kg): −22% (5 mg/kg)
191 to 192	O=S(=O)(Nc1ccc2c(OCc3csc(-c4ccc(F)cc4F)n3)cccc2c1)C(F)(F)F [Example 46, N-{5-[2-(2,4-Difluoro-phenyl)-thiazol-4-ylmethoxy]-naphthalen-2-yl}-C,C,C-trifluoro-methanesulfonamide]	5.55	–	–
197 to 198	O=S(=O)(Nc1ccc2c(OCc3csc(-c4ccc(C(F)(F)F)cn4)n3)cccc2c1)C(F)(F)F [Example 52, C,C,C-Trifluoro-N-{5-[2-(5-trifluoromethyl-pyridin-2-yl)-thiazol-4-yl-methoxy]naphthalen-2-yl}-methanesulfonamide]	4.92	–	–
151 to 152	COc1ccc(-c2nc(COc3cccc4cc(NS(=O)(=O)C(F)(F)F)ccc34)cs2)cc1 [Example 53, C,C,C-Trifluoro-N-{5-[2-(4-methoxy-phenyl)-thiazol-4-ylmethoxy]-naphthalen-2-yl}-methanesulfonamide]	5.02	–	–
–	O=S(=O)(Nc1ccc2c(OCc3csc(-c4ccc(C(F)(F)F)cc4)n3)cccc2c1)C(F)(F)F [Example 57, N-{5-[2-(4-trufluoromethyl-phenyl)-thiazol-4-ylmethoxy]-naphthalen-2-yl}-C,C,C-trifluoro-methanesulfonamide]	–	5.82	REDUCTION IN PLASMA GLUCOSE Day 3 (6 hr) p.o. (diabetic ob/ob mice [2]; 10 mg/kg): −33% (10 mg/kg)
–	sodium metavanadate	–	–	lowering in plasma glucose (diabetic ob/ob mice [3]): significant lowering in plasma glucose
